Test results reported in paper PMC8838415, “Discovery of Novel Pleuromutilin Derivatives as Potent Antibacterial Agents for the Treatment of MRSA Infection” (Molecules, 2022).
≈ marks a conversion by molar mass, not a printed value. Read-outs that look alike come from different tables or passages of the source.

Experiments:
[1] = test system: methicillin-resistant S. aureus (ATCC 43300); test: MIC and MBC, broth dilution, MRSA ATCC 43300; format: cell-based; settings: Staphylococcus aureus
Experimental: (§1) The synthesized pleuromutilin derivatives 8–30 were tested against four Gram-positive bacteria (MRSA ATCC 43300, S. aureus ATCC 29213 and two clinical strains of S. aureus (AD3 and 144) isolated from Guangdong Province). Tiamulin was used as the positive control in this experiment.
(§2) MIC values were tested following our previous work. The derivatives were dissolved in an aqueous solution of 2.5% tween-80 and 2.5% DMSO to make a solution with a concentration of 1000 µg/mL. The solution was diluted 12 times with MH broth to give a concentration range of 32–0.01 µg/mL. The bacteria (5 × 10^5 CFU/mL) were added in each well. For each compound concentration, three parallel experiments were set. The 96-well plate was incubated for 22–26 h at 37 °C. The MIC value was recorded as the minimal concentration that inhibits the visible growth of tested bacteria completely.
(§3) The MBC of these pleuromutilin derivatives were tested according to a previously reference. […] Then, the values of MBC were determined by laying 100 μL aliquots from the wells onto the MH agar plates without visible growth. The MH agar plate was cultured for a further 22–26 h at 37 °C.

S. aureus (ATCC 29213) = test: MIC and MBC, broth dilution, S. aureus ATCC 29213; format: cell-based; settings: Staphylococcus aureus, ATCC29213
Experimental: as §1, §2, §3

S. aureus (AD3) = test: MIC and MBC, broth dilution, S. aureus AD3; format: cell-based; settings: Staphylococcus aureus; S. aureus AD3 (clinical strain)
Experimental: as §1, §2, §3

S. aureus (144) = test: MIC and MBC, broth dilution, S. aureus 144; format: cell-based; settings: Staphylococcus aureus; S. aureus 144 (clinical strain)
Experimental: as §1, §2, §3

50S ribosome = test: SPR interaction and affinity analysis; format: binding, S. aureus ATCC 43300; settings: 4 °C
Experimental: S. aureus ATCC 43300 was used to prepare the 50S ribosomal subunit the same way as described previously. Cells were grown overnight in Brain Heart Infusion broth at 37 °C and harvested for 1.5 h at an OD600. Cells were washed with 10 mM Tris-HCl twice at pH = 7.5, and resuspended in 5 mL buffer A (20 mM HEPES-HCl pH = 7.5, 21 mM Mg(OAc)2, 100 mM NH4Cl, 1 mM DTT, 1 mM EDTA). Cells were broken by an ultrasound crusher. The lysate was centrifuged for 90 min at 20,000× g to clear cell debris.
The solution was layered on a sucrose cushion of 15 mL (10 mM Hepes-KOH pH 7.5, 25 mM Mg(OAc)2, 500 mM KCl, […], 1 mM DTT, 0.5 mM EDTA). Centrifugation was carried out for 15 h at 45,000 rpm using an ultracentrifuge Beckman (Beckman Coulter, Shanghai, China), Type 70Ti rotor. The crude ribosome pellet was resuspended in buffer E (10 mM Hepes-KOH pH 7.5, 10 mM Mg(OAc)2, 100 mM KCl, 1 mM DTT, 0.5 mM EDTA), then layered on 9 mL of 7–30% sucrose gradient and centrifuged in an ultracentrifuge Beckman, type SW40Ti rotor at 17,100 rpm for 15 h. The gradient was analyzed on the AKTA explorer system (Amersham, UK). The fractions corresponding to the 50S ribosomal subunit were collected and further subjected to precipitation by PEG 20,000. The 50S ribosomal subunit pellet was gently dissolved in 200 µL of storage buffer (10 mM HEPES-HCl pH = 7.5, 10 mM Mg(OAc)2, 15 mM KCl, 60 mM NH4Cl, 1 mM DTT) and stored at −80 °C.
SPR affinity analysis was performed on the bScreen LB 991 Label-free Microarray System (Berthold Technologies, Black Forest, Germany) at 4 °C and Biodot AD-1520 Array Printer (BIODOT Inc., Irvine, CA, USA) with a Photo-cross-linker SensorCHIP™. Concentrations of each compound were diluted to 100 μM with DMSO as the printing working solution for immobilization. A Biodot AD-1520 Array Printer (BIODOT Inc., CA, USA) was used to control the photo-cross-linker sensor chip and print samples. Each sample was printed four times. In order to check the chip quality and check whether the detection system works, DMSO was used as a system-negative control and rapamycin as a positive control. All positive control dots were divided into four groups and printed on the four corners of the sensor chip. The sensor chip was dried in vacuum after the array print and quickly transferred to a spectra radiator for a photo cross-linking reaction. The sensor chip was washed with C2H5OH, DMF and H2O in turn and evaporated in a N2 atmosphere for 15 min. Then, the Flowcell Cover were assembled.
The 50S ribosome was diluted separately to 200 nM, 400 nM, 800 nM, 1600 nM and 3200 nM with PBST (pH = 7.4, 0.1% Tween 20). Different concentrations of ribosome solutions were injected at a flow rate of 0.5 μL⋅s^−1 for 600 s at the associating stage at 4 °C, followed by PBST at a flow rate of 0.5⋅μL·s^−1 for 360 s at each dissociating stage. Then, the surface was regenerated with Glycine-HCl (pH = 2.0) at a flow rate of 2⋅μL·s^−1 for 300 s.
The raw data of the binding process of compounds and the 50S ribosome were recorded in real time. We compared the response unit (RU) of surface resonance to determine the different binding affinity between each sample dot. The process and analysis of association rate constants (Ka) and dissociation rate constants (Kd) and the equilibrium dissociation constant (KD, Kd/Ka) were performed using the data analysis software of the bScreen LB 991 Label-free Microarray System according to a single-site binding model (1:1 Langmuir binding) with mass transfer limitations for binding kinetics determination.

MRSA = test: Neutropenic murine thigh infection model; format: in vivo, mice; settings: 20 mg/kg intravenously, 24 h, compared to the no-drug control group
Experimental: The neutropenic murine thigh infection model experiment was performed as described in the literature. Six-week-old SPF-ICR female mice weighing 24–28 g were used for this study. The mice were injected with cyclophosphamide (Mead Johnson Pharmaceuticals, Evansville, Indiana—IN, USA) at a dose of 150 mg/kg 4 days and at a dose of 100 mg/kg 1 day before the experiment to reduce neutrophils and achieve immunosuppression (<0.1 × 10^9/L). A total of 0.1 mL MH broth (MRSA concentration approximately 10^7 CFU/mL) was injected into the posterior thigh of mice to establish the infection model. After the thighs of the mice were infected for 2 h, these mice were randomly divided into 3 groups (3 per group). […] A total of 24 h after the completion of the drug, the mice were euthanized and their thigh tissues were collected. Then, their thigh tissues were weighed and homogenized, respectively, in 3 mL of iced sterile saline. Tissue homogenate was serially diluted 10-fold and plated on MH agar. The resulting bacterial colonies were determined after incubation for 24 h.

MRSA ATCC 43300 = test system: MRSA ATCC 43300; design: method as in PMID 33137559; settings: cited from earlier work
CYP3A4 = CYP3A4 (Homo sapiens, UniProt P08684); settings: read-out: IC50 CYP3A4, cited from earlier work
CYP3A4, sequence (P08684 whole entry): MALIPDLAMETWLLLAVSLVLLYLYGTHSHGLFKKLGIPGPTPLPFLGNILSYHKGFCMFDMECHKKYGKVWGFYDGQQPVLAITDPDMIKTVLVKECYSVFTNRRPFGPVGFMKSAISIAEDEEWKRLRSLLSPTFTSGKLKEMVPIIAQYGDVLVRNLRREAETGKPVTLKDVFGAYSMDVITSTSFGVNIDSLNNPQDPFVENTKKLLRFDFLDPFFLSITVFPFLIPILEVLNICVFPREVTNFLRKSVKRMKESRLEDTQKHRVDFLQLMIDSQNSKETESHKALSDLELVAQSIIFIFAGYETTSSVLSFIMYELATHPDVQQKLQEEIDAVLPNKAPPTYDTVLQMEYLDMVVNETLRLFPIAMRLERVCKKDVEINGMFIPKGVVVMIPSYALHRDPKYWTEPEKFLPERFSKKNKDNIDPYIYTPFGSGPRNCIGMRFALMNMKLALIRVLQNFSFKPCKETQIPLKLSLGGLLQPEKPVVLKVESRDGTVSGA

C=C[C@]1(C)C[C@@H](OC(=O)CSCCN(CC)CC)[C@]2(C)[C@H](C)CC[C@]3(CCC(=O)[C@H]32)[C@@H](C)[C@@H]1O [Tiamulin, tiamulin, reference compound]
MBC [1]: 0.25 µg/mL (≈ 0.506 µM)
MIC [1]: 0.25 µg/mL (≈ 0.506 µM)
MBC (S. aureus (ATCC 29213)): 1 µg/mL (≈ 2.03 µM)
MIC (S. aureus (ATCC 29213)): 0.5 µg/mL (≈ 1.01 µM)
MBC (S. aureus (AD3)): 1 µg/mL (≈ 2.03 µM)
MIC (S. aureus (AD3)): 1 µg/mL (≈ 2.03 µM)
MBC (S. aureus (144)): 8 µg/mL (≈ 16.2 µM)
MIC (S. aureus (144)): 1 µg/mL (≈ 2.03 µM)
Avg ka (50S ribosome; 1:1 Langmuir binding): 121 M⁻¹ s⁻¹
Avg kd (50S ribosome; 1:1 Langmuir binding): 3.03e-06 s⁻¹
Kd (50S ribosome; KD = Kd/Ka): 0.025 µM
reduction of MRSA load in thigh (MRSA): ~ 0.6 log10 CFU/mL
PAE (MRSA ATCC 43300; 2× MIC): 1.65 h
PAE (MRSA ATCC 43300; 4× MIC): 2.04 h
IC50 (CYP3A4): 1.64 µM
IC50 (CYP3A4; converted with MW): 1.64 µM
